Source: ChEMBL document CHEMBL1138727 (Bioorg Med Chem Lett, 2004)
One block for each compound: values may come before it.

Legend:
[1] = target: Serine/threonine-protein kinase ATR (Homo sapiens, UniProt Q13535); assay: Inhibition of Ataxia telangiectasia related protein ATR kinase
[2] = target: Serine-protein kinase ATM (Homo sapiens, UniProt Q13315); assay: Inhibition of Mutated in ataxia telangiectasia protein ATM kinase
[3] = target: Serine/threonine-protein kinase mTOR (Homo sapiens, UniProt P42345); assay: Inhibition of Mammalian target of Rapamycin mTOR
[4] = target: Phosphatidylinositol 4,5-bisphosphate 3-kinase catalytic subunit alpha isoform (Homo sapiens, UniProt P42336); assay: Inhibition of Phosphatidylinositol 3-kinase p110 alpha subunit
[5] = target: T1, DNA-dependent protein kinase catalytic subunit (Homo sapiens, UniProt P78527); assay: Inhibitory activity against DNA-dependent protein kinase (DNA-PK) at 0.5 uM
[6] = target: T1, DNA-dependent protein kinase catalytic subunit; assay: Inhibitory activity against DNA-dependent protein kinase (DNA-PK)

T1 sequence (P78527 whole entry): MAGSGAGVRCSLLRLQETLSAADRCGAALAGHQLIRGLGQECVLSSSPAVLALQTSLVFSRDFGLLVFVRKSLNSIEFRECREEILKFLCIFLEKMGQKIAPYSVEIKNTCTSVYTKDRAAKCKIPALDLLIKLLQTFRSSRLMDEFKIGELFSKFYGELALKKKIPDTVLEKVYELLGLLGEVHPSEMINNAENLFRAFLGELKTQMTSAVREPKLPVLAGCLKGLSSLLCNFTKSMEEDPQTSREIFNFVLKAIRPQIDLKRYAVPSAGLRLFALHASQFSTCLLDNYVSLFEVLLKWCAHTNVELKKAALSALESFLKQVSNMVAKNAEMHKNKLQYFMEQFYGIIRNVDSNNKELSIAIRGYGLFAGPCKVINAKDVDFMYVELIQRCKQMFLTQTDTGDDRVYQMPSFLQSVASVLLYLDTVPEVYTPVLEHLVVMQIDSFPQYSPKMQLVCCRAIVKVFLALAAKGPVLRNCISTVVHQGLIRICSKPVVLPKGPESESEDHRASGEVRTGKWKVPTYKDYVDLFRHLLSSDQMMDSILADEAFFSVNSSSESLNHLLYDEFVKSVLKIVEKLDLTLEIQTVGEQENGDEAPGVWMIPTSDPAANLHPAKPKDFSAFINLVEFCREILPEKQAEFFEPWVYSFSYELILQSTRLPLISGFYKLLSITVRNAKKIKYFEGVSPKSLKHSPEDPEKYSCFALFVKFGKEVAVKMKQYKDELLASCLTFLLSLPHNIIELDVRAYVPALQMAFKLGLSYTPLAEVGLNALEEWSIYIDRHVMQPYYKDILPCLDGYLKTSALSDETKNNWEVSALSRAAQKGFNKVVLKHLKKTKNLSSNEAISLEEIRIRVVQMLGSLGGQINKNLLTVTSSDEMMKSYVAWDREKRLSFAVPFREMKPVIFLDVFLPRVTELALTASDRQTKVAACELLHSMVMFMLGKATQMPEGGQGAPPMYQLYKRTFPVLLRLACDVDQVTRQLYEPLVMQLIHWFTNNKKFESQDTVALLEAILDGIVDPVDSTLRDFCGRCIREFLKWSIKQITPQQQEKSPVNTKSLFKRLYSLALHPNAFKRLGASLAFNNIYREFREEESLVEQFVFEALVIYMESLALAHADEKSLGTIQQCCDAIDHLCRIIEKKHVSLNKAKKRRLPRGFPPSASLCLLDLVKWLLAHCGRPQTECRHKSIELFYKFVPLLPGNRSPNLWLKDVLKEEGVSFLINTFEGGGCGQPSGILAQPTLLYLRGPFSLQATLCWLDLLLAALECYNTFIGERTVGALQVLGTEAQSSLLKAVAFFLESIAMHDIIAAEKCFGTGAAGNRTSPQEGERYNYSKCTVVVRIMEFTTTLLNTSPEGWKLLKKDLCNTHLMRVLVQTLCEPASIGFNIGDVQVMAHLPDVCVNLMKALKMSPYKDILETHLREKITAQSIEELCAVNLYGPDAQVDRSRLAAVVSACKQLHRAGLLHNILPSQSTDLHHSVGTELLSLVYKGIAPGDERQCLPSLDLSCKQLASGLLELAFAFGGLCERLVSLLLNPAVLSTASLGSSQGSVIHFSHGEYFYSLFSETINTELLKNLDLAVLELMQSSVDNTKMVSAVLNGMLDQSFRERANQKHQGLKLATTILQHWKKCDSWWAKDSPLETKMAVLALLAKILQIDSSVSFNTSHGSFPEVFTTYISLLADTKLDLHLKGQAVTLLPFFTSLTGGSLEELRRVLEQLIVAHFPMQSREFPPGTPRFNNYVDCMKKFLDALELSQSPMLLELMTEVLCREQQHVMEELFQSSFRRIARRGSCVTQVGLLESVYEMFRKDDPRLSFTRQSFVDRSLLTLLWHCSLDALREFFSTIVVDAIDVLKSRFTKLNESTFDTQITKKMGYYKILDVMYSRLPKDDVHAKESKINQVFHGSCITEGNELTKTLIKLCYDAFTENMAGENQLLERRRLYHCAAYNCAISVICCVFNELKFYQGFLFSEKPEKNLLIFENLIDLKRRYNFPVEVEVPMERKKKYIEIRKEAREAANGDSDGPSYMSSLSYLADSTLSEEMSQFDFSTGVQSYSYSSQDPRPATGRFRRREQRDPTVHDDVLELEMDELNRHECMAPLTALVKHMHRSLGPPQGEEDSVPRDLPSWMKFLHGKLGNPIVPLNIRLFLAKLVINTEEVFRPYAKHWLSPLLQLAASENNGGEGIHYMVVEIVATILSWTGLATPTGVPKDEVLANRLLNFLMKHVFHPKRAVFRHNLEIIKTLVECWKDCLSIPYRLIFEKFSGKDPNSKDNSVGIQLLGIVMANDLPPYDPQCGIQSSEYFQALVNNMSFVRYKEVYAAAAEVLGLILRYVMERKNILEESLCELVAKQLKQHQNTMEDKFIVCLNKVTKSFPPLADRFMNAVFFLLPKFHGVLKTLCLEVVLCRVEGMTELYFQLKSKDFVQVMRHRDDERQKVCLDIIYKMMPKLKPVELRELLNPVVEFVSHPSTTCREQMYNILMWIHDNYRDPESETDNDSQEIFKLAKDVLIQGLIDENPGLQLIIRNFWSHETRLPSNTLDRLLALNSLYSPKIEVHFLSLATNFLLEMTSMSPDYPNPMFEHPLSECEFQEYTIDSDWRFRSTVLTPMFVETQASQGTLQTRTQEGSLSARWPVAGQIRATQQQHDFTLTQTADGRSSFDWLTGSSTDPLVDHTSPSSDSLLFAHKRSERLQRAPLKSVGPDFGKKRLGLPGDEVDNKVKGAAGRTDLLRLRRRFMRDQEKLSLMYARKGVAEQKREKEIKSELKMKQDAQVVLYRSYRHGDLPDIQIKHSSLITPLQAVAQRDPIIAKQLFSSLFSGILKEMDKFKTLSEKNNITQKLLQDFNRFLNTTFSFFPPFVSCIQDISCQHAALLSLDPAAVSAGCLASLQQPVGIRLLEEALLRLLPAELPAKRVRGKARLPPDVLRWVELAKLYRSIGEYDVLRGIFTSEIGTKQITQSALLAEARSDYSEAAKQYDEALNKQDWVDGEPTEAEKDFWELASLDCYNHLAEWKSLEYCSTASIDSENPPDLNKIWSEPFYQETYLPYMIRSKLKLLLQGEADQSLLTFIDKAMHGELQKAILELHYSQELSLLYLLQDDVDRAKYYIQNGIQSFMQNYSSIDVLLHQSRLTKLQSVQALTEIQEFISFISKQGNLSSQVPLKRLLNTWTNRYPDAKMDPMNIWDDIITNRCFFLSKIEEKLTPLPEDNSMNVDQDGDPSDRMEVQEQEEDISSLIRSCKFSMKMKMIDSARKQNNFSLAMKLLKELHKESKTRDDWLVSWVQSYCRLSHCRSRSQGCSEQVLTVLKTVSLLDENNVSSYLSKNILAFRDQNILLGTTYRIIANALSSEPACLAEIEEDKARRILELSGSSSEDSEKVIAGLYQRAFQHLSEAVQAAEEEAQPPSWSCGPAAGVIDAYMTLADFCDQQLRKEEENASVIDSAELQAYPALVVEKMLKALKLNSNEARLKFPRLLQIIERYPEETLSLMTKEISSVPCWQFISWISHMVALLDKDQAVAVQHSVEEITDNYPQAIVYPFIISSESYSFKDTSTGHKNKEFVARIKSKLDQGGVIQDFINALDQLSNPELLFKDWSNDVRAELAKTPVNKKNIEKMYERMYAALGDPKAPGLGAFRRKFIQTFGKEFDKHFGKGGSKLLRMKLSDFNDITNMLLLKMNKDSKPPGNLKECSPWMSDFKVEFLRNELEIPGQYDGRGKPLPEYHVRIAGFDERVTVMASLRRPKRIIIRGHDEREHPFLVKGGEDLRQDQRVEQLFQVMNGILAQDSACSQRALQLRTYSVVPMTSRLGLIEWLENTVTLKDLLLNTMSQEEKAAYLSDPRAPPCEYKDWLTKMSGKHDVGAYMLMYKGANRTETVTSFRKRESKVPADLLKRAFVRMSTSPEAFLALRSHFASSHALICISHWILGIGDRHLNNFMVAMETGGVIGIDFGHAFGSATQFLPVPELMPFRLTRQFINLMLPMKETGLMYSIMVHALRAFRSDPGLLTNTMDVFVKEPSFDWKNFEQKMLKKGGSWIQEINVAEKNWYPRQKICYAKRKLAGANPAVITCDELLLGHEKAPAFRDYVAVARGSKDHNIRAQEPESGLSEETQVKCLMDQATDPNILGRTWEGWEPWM
Sequence of Phosphatidylinositol 4,5-bisphosphate 3-kinase catalytic subunit alpha isoform (P42336 whole entry, canonical isoform): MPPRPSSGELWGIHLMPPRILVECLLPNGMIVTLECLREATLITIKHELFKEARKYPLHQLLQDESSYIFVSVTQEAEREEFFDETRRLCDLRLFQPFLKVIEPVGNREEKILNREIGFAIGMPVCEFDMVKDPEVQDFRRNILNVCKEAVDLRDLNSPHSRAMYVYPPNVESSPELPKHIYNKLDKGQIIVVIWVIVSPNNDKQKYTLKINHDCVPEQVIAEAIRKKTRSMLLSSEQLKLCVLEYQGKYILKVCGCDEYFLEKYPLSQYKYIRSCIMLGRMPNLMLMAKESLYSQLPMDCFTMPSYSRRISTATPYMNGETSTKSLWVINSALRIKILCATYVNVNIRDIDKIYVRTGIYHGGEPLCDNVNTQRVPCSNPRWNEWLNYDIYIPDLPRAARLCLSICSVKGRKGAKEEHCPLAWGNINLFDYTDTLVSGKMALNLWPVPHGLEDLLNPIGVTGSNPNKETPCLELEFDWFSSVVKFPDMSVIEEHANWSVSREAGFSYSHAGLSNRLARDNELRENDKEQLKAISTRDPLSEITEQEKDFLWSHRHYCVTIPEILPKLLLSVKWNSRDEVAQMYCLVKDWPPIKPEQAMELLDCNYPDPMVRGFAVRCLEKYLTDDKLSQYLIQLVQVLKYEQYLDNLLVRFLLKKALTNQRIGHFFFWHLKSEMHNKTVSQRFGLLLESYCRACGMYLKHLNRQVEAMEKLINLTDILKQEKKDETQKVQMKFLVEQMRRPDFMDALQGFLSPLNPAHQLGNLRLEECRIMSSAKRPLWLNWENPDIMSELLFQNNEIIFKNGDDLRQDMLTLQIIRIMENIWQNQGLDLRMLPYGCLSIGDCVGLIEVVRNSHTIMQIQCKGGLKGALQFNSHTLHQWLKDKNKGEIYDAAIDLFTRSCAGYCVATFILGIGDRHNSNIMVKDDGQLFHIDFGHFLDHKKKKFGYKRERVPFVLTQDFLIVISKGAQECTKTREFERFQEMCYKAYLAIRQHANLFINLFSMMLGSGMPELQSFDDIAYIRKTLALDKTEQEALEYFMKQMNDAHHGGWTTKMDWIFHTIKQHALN

SMILES: O=c1cc(N2CCOCC2)oc2c1ccc1ccccc12
IC50 [1]: > 100 µM
IC50 [2]: > 100 µM
IC50 [3]: 6400 nM
IC50 [4]: 13 µM

SMILES: O=c1cc(N2CCOCC2)oc2c(-c3cc4ccccc4s3)cccc12
IC50 [5]: 800 nM

SMILES: COc1ccc(-c2cccc3c(=O)cc(N4CCOCC4)oc23)cc1
IC50 [5]: 900 nM

SMILES: O=c1cc(N2CCOCC2)oc2ccccc12
IC50 [5]: 1300 nM

SMILES: O=c1cc(N2CCOCC2)oc2c(-c3ccccc3)cccc12 [LY-294002]
IC50 [1]: > 100 µM
IC50 [6]: 1200 nM
IC50 [2]: > 100 µM
IC50 [3]: 2500 nM

Continued by falling IC50 [5], values first:

IC50 [5]: 800 nM
SMILES: CC(=O)c1ccc(-c2cccc3c(=O)cc(N4CCOCC4)oc23)s1

IC50 [5]: 600 nM
SMILES: O=c1cc(N2CCOCC2)oc2c(-c3ccc(CO)cc3)cccc12

IC50 [5]: 300 nM
SMILES: O=c1cc(N2CCOCC2)oc2c(-c3ccsc3)cccc12

IC50 [5]: 300 nM
SMILES: O=c1cc(N2CCOCC2)oc2c(-c3cccs3)cccc12

IC50 [5]: 190 nM
SMILES: CC1CN(c2cc(=O)c3ccc4ccccc4c3o2)CCO1 (stereo not drawn)

IC50 [5]: 40 nM
SMILES: O=c1cc(N2CCOCC2)oc2c(-c3cccc4c3oc3ccccc34)cccc12

IC50 [6]: 14 nM
IC50 [3]: 1700 nM
IC50 [4]: 5 µM
IC50 [5]: 20 nM
SMILES: O=c1cc(N2CCOCC2)oc2c(-c3cccc4c3sc3ccccc34)cccc12
IC50 [1]: > 100 µM
IC50 [2]: > 100 µM
